# Laboratory results published in ChEMBL document CHEMBL4265936, “Pyrazolo[4,3-b]pyrimido[4,5-e][1,4]diazepine derivatives as new multi-targeted inhibitors of Aurora A/B and KDR” (Eur J Med Chem, 2018).
# Columns and labels:
# [1] = biological target: Platelet-derived growth factor receptor beta (Homo sapiens) (UniProt P09619); assay: Inhibition of recombinant human PDGFRbeta at 1000 nM after 60 mins by ELISA relative to control
# [2] = biological target: Proto-oncogene tyrosine-protein kinase receptor Ret (Homo sapiens) (UniProt P07949); assay: Inhibition of recombinant human RET at 1000 nM after 60 mins by ELISA relative to control
# Proto-oncogene tyrosine-protein kinase receptor Ret (Homo sapiens), sequence (P07949 whole entry): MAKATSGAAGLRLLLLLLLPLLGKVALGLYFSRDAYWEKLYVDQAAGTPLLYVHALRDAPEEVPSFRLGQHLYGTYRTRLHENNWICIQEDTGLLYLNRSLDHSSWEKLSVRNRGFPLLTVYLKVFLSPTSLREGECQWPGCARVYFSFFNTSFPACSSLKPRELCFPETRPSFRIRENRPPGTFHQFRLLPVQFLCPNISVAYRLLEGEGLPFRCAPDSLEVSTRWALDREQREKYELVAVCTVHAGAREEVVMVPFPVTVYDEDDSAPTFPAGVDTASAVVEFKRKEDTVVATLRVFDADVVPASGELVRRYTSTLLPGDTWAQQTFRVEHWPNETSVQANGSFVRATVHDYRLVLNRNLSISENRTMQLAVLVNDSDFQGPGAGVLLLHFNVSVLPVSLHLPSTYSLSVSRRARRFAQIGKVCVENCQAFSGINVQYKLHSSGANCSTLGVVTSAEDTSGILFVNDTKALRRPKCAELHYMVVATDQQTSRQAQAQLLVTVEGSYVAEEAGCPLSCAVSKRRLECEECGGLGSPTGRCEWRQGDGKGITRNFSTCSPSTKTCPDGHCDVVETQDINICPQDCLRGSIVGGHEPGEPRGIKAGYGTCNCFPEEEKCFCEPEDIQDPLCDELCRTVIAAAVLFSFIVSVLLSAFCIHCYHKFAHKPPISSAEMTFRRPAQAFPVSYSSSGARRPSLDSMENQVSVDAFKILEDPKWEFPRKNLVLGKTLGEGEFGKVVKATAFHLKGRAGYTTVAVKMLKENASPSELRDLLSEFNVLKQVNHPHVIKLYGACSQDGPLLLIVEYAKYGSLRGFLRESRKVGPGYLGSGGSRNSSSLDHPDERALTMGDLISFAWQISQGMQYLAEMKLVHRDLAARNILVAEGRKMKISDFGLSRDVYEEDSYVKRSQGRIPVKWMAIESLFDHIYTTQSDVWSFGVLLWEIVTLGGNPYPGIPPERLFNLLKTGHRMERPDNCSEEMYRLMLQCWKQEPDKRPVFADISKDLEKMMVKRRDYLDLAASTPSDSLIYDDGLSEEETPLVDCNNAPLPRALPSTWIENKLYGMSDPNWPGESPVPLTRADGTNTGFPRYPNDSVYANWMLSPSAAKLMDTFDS
# Aurora kinase A = biological target: T1, Aurora kinase A (Homo sapiens, UniProt O14965); assay: Inhibition of Aurora A (unknown origin) using STK S2 as substrate after 40 mins by HTRF assay
# T1 sequence (O14965 whole entry): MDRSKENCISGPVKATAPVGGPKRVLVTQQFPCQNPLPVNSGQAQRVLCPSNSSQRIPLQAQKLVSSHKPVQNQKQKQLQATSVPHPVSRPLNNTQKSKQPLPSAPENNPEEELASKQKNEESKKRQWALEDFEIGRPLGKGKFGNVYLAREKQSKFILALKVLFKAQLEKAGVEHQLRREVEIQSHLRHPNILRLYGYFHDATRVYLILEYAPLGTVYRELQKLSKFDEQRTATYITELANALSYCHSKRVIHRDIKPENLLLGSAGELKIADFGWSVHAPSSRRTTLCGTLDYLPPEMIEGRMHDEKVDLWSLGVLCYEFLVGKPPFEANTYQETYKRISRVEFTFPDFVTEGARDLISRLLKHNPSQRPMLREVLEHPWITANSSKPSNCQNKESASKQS
# Aurora kinase B = Aurora kinase B (Homo sapiens, UniProt Q96GD4); assay: Inhibition of Aurora B (unknown origin) using STK S2 as substrate after 30 mins by HTRF assay
# Aurora kinase B, sequence (Q96GD4 whole entry): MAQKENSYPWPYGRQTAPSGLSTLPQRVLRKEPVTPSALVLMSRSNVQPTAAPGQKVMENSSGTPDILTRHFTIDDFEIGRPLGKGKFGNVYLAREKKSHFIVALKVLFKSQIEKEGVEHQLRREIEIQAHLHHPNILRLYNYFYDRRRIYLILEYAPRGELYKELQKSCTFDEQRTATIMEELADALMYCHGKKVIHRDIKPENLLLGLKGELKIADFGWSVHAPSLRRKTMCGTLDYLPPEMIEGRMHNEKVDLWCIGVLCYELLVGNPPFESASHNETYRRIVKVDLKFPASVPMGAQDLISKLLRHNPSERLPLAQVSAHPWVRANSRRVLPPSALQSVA
# [3] = biological target: Vascular endothelial growth factor receptor 2 (Homo sapiens, UniProt P35968); assay: biochemical; assay type: cell-based, Sf21
# Vascular endothelial growth factor receptor 2, sequence (P35968 whole entry): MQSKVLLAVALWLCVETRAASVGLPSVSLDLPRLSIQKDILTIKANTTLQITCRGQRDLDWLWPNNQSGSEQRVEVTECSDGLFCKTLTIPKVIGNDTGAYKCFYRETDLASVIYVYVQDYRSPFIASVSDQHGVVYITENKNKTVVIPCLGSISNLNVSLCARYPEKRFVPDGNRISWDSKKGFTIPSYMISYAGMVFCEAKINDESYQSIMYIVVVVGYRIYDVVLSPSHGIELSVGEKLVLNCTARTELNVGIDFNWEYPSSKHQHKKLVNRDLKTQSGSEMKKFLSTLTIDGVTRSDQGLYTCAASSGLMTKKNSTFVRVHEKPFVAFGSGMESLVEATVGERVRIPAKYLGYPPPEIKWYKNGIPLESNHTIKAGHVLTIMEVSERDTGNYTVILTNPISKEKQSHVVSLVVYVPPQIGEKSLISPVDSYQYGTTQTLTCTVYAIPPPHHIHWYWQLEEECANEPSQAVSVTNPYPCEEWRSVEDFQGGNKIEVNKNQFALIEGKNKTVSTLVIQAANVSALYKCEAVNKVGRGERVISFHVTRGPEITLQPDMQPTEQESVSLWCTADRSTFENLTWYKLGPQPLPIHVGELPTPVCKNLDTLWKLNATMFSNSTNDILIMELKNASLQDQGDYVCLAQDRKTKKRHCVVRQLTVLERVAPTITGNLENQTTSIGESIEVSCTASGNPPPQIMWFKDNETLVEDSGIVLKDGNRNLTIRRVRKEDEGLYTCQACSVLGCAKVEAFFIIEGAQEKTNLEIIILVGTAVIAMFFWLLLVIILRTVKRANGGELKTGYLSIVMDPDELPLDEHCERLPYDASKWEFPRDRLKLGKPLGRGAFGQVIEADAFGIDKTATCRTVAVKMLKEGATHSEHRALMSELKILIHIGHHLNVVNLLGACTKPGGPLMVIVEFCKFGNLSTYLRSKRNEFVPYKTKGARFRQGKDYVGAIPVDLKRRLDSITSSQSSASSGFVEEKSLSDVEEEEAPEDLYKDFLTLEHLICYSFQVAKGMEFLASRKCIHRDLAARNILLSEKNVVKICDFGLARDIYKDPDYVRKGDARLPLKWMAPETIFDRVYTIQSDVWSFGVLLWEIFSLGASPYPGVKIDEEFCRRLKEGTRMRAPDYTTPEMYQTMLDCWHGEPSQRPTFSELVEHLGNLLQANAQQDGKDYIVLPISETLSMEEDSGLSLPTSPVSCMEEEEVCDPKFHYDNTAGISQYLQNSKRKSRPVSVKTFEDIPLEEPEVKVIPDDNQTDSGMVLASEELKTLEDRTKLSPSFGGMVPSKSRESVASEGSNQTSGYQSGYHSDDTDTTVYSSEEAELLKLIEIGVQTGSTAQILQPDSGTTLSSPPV
# Description: Inhibition of recombinant human N-terminal His6-tagged KDR (790 to end residues) expressed in baculovirus infected Sf21 insect cells after 60 mins by ELISA
# Platelet-derived growth factor receptor beta (Homo sapiens), sequence (P09619 whole entry): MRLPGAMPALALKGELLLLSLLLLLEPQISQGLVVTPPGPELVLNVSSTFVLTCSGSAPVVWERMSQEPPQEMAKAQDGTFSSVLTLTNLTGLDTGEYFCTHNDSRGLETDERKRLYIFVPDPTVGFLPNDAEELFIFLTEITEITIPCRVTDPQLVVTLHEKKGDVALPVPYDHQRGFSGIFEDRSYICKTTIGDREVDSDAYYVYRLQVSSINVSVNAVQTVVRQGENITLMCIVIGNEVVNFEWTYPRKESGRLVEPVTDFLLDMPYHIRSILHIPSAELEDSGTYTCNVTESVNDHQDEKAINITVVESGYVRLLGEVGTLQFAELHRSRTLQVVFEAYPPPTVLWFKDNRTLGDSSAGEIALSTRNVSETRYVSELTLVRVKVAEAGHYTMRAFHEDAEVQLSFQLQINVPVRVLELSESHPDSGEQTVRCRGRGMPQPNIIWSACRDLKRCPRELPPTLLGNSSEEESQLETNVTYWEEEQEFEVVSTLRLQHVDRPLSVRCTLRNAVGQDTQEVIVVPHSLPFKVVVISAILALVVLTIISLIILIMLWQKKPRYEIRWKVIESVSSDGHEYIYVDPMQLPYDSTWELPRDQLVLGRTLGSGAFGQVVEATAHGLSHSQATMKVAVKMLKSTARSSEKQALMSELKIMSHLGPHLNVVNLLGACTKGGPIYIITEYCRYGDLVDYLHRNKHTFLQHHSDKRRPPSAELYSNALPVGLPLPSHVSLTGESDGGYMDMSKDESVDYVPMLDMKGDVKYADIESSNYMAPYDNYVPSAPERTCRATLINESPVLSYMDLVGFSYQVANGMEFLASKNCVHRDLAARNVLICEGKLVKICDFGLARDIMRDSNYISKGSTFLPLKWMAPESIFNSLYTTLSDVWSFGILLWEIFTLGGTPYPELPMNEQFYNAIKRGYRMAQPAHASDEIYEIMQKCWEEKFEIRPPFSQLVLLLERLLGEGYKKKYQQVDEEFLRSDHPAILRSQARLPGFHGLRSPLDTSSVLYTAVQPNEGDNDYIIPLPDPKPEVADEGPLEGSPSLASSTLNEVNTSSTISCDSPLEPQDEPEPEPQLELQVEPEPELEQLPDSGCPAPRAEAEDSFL
SMILES,inhibition [1],inhibition [2],IC50 (Aurora kinase A),IC50 (Aurora kinase B),IC50 [3]
CCN(CC)CCNC(=O)c1c(C)[nH]c(/C=C2\C(=O)Nc3ccc(F)cc32)c1C,75.7%,76.7%,–,–,–
Cc1ccc(C2=Nc3c(n[nH]c3C)Nc3nc(N4CCCCC4)ncc32)cc1,–,–,0.0776 µM,0.0503 µM,0.03 µM
Cc1ccc(C2=Nc3c(n[nH]c3C)Nc3nc(NC(C)(C)C)ncc32)cc1,–,–,0.357 µM,1.18 µM,0.0845 µM
COc1ccc(C2=Nc3c(n[nH]c3C)Nc3nc(SC)ncc32)cc1,–,–,0.093 µM,2.68 µM,0.43 µM
CSc1ncc2c(n1)Nc1n[nH]c(C)c1N=C2c1ccccc1,–,–,0.193 µM,0.894 µM,0.697 µM
CCN(CC)c1ncc2c(n1)Nc1n[nH]c(C)c1N=C2c1ccc(C)cc1,–,–,0.268 µM,0.322 µM,0.0083 µM
CSc1ncc2c(n1)Nc1n[nH]c(C)c1N=C2c1ccccc1C(F)(F)F,–,–,0.128 µM,0.307 µM,0.205 µM
Cc1ccc(C2=Nc3c(n[nH]c3C)Nc3nc(NC(C)C)ncc32)cc1,–,–,0.0631 µM,0.0541 µM,0.0303 µM
CSc1ncc2c(n1)Nc1n[nH]c(C)c1N=C2c1ccc(C)cc1,–,–,0.0706 µM,0.0998 µM,0.157 µM
CSc1ncc2c(n1)Nc1n[nH]c(C)c1N=C2c1cccc(F)c1,–,–,0.167 µM,0.611 µM,0.33 µM
COc1ccccc1C1=Nc2c(n[nH]c2C)Nc2nc(SC)ncc21,–,–,0.191 µM,2.32 µM,0.102 µM
